Where a name gives a salt, the structure may show the parent alone. Read-outs that look alike come from different tables or passages of the source.
Tests used:
Assay type in all cases: cell-based
SARS-CoV-2 [1] = experiment: microbe, parasite or virus in culture
VeroE6 cells = experiment: Evaluation of toxicity without virus (CPE and MTT assay), Example 1; details: for Minimum Cytotoxicity: absence of virus, 72 h
Experimental: Serially diluted compounds (⅒ dilution) were added in each well in the absence of virus and incubated for 72 hours, and at end point the CPE was recorded as above. In parallel, a duplicate plate was set up for an MTT assay (Abcam Ab 211091) carried out following the manufacturer’s recommendations. Briefly, the culture medium was discarded and 50 µl of fresh medium and MTT reagent was added to each well, including a background (no cell) control. The plates were returned to the 37° C. incubator for 3 hours before the MTT/media solution was discarded and 150 µl of MTT solvent was added to each well. The plates were incubated for a further 15 minutes in foil on a hula mixer and the absorbance recorded at 590 nm. The percentage of cytotoxicity was calculated as follows: (DMSO control - sample)/DMSO control, after replicate values were averaged and corrected for the background control (no cell control).

SARS-CoV-2 [2] = experiment: In vitro antiviral assay, development of cytopathic effects (CPE), Example 1; details: for minimal effective concentration: ten-fold dilutions from 25 µM, read-out: Initial titre (Minimum concentration of drug inhibiting development of CPE)
[3] = Severe acute respiratory syndrome coronavirus 2, Vero C1008, 72 h, read-out: IC50 measured when each drug used individually
[4] = Severe acute respiratory syndrome coronavirus 2, Vero C1008, read-out: IC50 (drug used alone)
[5] = Severe acute respiratory syndrome coronavirus 2, Vero C1008, 72 h, 20 PFU/well SARS-CoV-2, VeroE6 cells, 72 h, narrower dilution steps in quadruplicate, read-out: Repeat TCID50 (TCID50 measurement for drugs showing greatest initial efficacy on titration)
[6] = Severe acute respiratory syndrome coronavirus 2, Vero C1008, 20 PFU/well SARS-CoV-2, VeroE6 cells, 72 h
[7] = Severe acute respiratory syndrome coronavirus 2, Vero C1008, Table 3A, predetermined IC50 of individual drug, Vero-E6, 20 pfu/well, read-out: IC50 (drug used alone)
[8] = Severe acute respiratory syndrome coronavirus 2, Vero C1008, Vero-E6, 20 pfu/well, 72 h, read-out: IC50 measured when each drug used individually

SMILES	Minimum Cytotoxicity (VeroE6 cells) [µM]	minimal effective concentration (SARS-CoV-2 [2]; [6]) [µM]	other results
CCC(CC)COC(=O)[C@H](C)N[P@](=O)(OC[C@H]1O[C@@](C#N)(c2ccc3c(N)ncnn23)[C@H](O)[C@@H]1O)Oc1ccccc1 [Remdesivir]			IC50 (SARS-CoV-2 [1]; [3]): 1560 nM; IC50 (SARS-CoV-2 [1]; [4]): 1560 nM
CC(C)(C)NC(=O)[C@@H]1CN(Cc2cccnc2)CCN1C[C@@H](O)C[C@@H](Cc1ccccc1)C(=O)N[C@H]1c2ccccc2C[C@H]1O [Indinavir sulfate]	>25		
CCN(CCO)CCCC(C)Nc1ccnc2cc(Cl)ccc12 (centres unmarked) [Hydroxychloroquine]	25	25	IC50 (SARS-CoV-2 [2]; 20 PFU/well SARS-CoV-2, VeroE6 cells, 72 h, narrower dilution steps in quadruplicate, read-out: Repeat TCID50 (TCID50 measurement for drugs showing greatest initial efficacy on titration)): 2900 nM; IC50 (SARS-CoV-2 [2]; [5]): 2000 nM; cytotoxicity in the MTT assay (VeroE6 cells; at 2.5 µM): none; cytotoxicity in the MTT assay (VeroE6 cells; at 25 µM): showed cytotoxicity; IC50 (SARS-CoV-2 [1]; [7]): 1580 nM; IC50 (SARS-CoV-2 [1]; [8]): 1580 nM
CCCNS(=O)(=O)Nc1ncnc(OCCOc2ncc(Br)cn2)c1-c1ccc(Br)cc1 [Macitentan]	>25	> 25	
Nc1nc(F)nc2c1ncn2[C@@H]1O[C@H](COP(=O)(O)O)[C@@H](O)[C@@H]1O [Fludarabine phosphate]	25		cytotoxicity in the MTT assay (VeroE6 cells; at 2.5 µM): none; cytotoxicity in the MTT assay (VeroE6 cells; at 25 µM): showed cytotoxicity
Cn1nnc(-c2ccc(-c3ccc(N4C[C@H](COP(=O)(O)O)OC4=O)cc3F)cn2)n1 [Tedizolid phosphate]	>25	> 25	
Cc1onc(-c2ccccc2)c1C(=O)N1CCN(c2ccc([N+](=O)[O-])cc2Cl)CC1 [Nucleozin]	>25	> 25	
Cc1cc(/C=C/C#N)cc(C)c1Nc1ccnc(Nc2ccc(C#N)cc2)n1 [Rilpivirine hydrochloride]	>25	> 25	
C[C@H]1[C@H](NC(=O)/C(=N\OC(C)(C)C(=O)O)c2csc(N)n2)C(=O)N1S(=O)(=O)O [Aztreonam]	>25	> 25	
COC(=O)N[C@H](C(=O)N[C@@H](Cc1ccccc1)[C@@H](O)CN(Cc1ccc(-c2ccccn2)cc1)NC(=O)[C@@H](NC(=O)OC)C(C)(C)C)C(C)(C)C [Atazanavir]	>25	> 25	
CS(=O)(=O)c1cccc(C[C@H](NC(=O)c2c(Cl)cc3c(c2Cl)CCN(C(=O)c2ccc4ccoc4c2)C3)C(=O)O)c1 [Lifitegrast]	>25	> 25	
CC(C)c1nc(CN(C)C(=O)N[C@@H](CCN2CCOCC2)C(=O)N[C@H](CC[C@H](Cc2ccccc2)NC(=O)OCc2cncs2)Cc2ccccc2)cs1 [Cobicistat]	>25	> 25	
CCCc1nc(C)c2c(=O)[nH]c(-c3cc(S(=O)(=O)N4CCN(CC)CC4)ccc3OCC)nn12 [Vardenafil hydrochloride trihydrate, 2-[2-ethoxy-5-(4-ethylpiperazin-1-yl)sulfonylphenyl]-5-methyl-7-propyl-3H-imidazo[5,1-f][1,2,4]triazin-4-one]	>25	25	IC50 (SARS-CoV-2 [2]; [5]): > 25000 nM; IC50 (SARS-CoV-2 [1]; [7]): 6250 nM; IC50 (SARS-CoV-2 [1]; [8]): 6250 nM
Nc1nc(=O)c2c([nH]1)NCC(CNc1ccc(C(=O)N[C@@H](CCC(=O)[O-])C(=O)[O-])cc1)N2C=O.[Ca+2] (some centres unmarked) [Folinic acid calcium salt hydrate]	>25		minimal effective concentration (SARS-CoV-2 [2]; 20 PFU/well SARS-CoV-2, VeroE6 cells, 72 h): >25 µM
Cc1c(O)cccc1C(=O)N[C@@H](CSc1ccccc1)[C@H](O)CN1C[C@H]2CCCC[C@H]2C[C@H]1C(=O)NC(C)(C)C [Nelfinavir mesylate]	25		IC50 (SARS-CoV-2 [2]; Severe acute respiratory syndrome coronavirus 2, Vero C1008, 72 h, read-out: Repeat TCID50 (TCID50 measurement for drugs showing greatest initial efficacy on titration), 20 PFU/well SARS-CoV-2, VeroE6 cells, 72 h, narrower dilution steps in quadruplicate): 2900 nM; IC50 (SARS-CoV-2 [2]; read-out: Repeat TCID50 (TCID50 measurement for drugs showing greatest initial efficacy on titration), 20 PFU/well SARS-CoV-2, VeroE6 cells, 72 h, narrower dilution steps in quadruplicate): 2000 nM; cytotoxicity in the MTT assay (VeroE6 cells; at 2.5 µM): none; cytotoxicity in the MTT assay (VeroE6 cells; at 25 µM): showed cytotoxicity; IC50 (SARS-CoV-2 [1]; [3]): 390 nM; IC50 (SARS-CoV-2 [1]; [4]): 390 nM

From patent publication US20230124467A1, “COMPOUNDS AND METHODS FOR TREATING DISEASES AND/OR CONDITIONS CAUSED BY CORONAVIRUS” (priority 2020, published 2023)
